Test systems include A549; HOP-62; COLO 205; SK-MEL-28; Malme-3M; RXF 393; SNB-19; SK-MEL-2; M14; CAKI-1; U-251; RPMI-8226; MOLT-4; OVCAR-8; KM12; OVCAR-3; NCI-H522; NCI-H460; SK-MEL-5; CCRF-CEM.
What all share (test): NCI anticancer screen, dose series, 48 h

Structures are written as SMILES.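 Where inhibition never reached the appropriate level, the endpoint shown equals the highest concentration tested. Otherwise, values were interpolated linearly from a five-concentration, 48-hour dose response in 96-well plates. Abbreviation: GI50, concentration required for 50% inhibition of growth.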 Activity calls are given as the source filed them. Rule as the data show it: active = GI50 up to about 1.1 µM and inactive = higher. Where only a bound is given, the exact number is not on record here.

As for `O=C(O)c1cccc(OCCO)c1`, the GI50 in the assay on A549, in the assay on HOP-62, in the assay with COLO 205, with SK-MEL-28, in the assay on Malme-3M and in the assay on RXF 393 was > 100 µM (inactive) each time. Moreover, the GI50 in the assay on SNB-19, with SK-MEL-2, in the assay with M14, in the assay with CAKI-1, in the assay with U-251 and in the assay with RPMI-8226 was > 100 µM (inactive) throughout. Further, the GI50 with MOLT-4, in the assay with OVCAR-8, in the assay with KM12, with OVCAR-3, in the assay with NCI-H522 and in the assay with NCI-H460 was > 100 µM (inactive) throughout. Also, the GI50 in the assay on SK-MEL-5 was > 100 µM (inactive).
Consider `CCNC(=O)C(C)C1CCC2(C)C=CC(=O)C(C)=C2C1O` (stereo not drawn), for which the GI50 in the assay with A549 is 99.5 µM (inactive); in the assay with HOP-62 it was > 100 µM (inactive); with COLO 205 it was > 100 µM (inactive); in the assay on SK-MEL-28 it was > 100 µM (inactive); in the assay with RXF 393 it was > 100 µM (inactive); in the assay on SNB-19 it was > 100 µM (inactive). Besides, the GI50 in the assay with SK-MEL-2 was > 100 µM (inactive); in the assay with CAKI-1 it was > 100 µM (inactive); in the assay on U-251, > 76.4 µM (inactive); with RPMI-8226, > 100 µM (inactive); in the assay on MOLT-4, > 100 µM (inactive); in the assay with OVCAR-8, > 100 µM (inactive). Moreover, the GI50 with KM12, in the assay with OVCAR-3, in the assay with NCI-H522, in the assay on CCRF-CEM, with NCI-H460 and with SK-MEL-5 was > 100 µM (inactive) each time.
In the case of `Cn1c(=O)oc2cc(C(O)CN3CCN(Cc4ccc5c(c4)OCO5)CC3)ccc21` (stereo not drawn), the GI50 with A549, in the assay on HOP-62, in the assay with COLO 205, in the assay on SK-MEL-28, in the assay with Malme-3M and in the assay with RXF 393 was > 100 µM (inactive) in each case. Moreover, the GI50 in the assay on SNB-19, in the assay with M14, with CAKI-1, in the assay with U-251, with MOLT-4 and in the assay with OVCAR-8 was > 100 µM (inactive) in each case. Besides, the GI50 in the assay with KM12, in the assay with OVCAR-3, in the assay on NCI-H522, in the assay with CCRF-CEM and in the assay with NCI-H460 was > 100 µM (inactive) in each case.
As for `CSC1=C(SC)C(=O)c2cn(C)c(=O)cc2C1=O`, the GI50 in the assay on A549 was 16.1 µM (inactive); with HOP-62 it was 9.38 µM (inactive); in the assay on COLO 205 it was 1.49 µM (inactive); in the assay on SK-MEL-28, 2.82 µM (inactive); with Malme-3M, 2.24 µM (inactive); with RXF 393 it was 1.89 µM (inactive). The GI50 in the assay on SNB-19 was 17.1 µM (inactive); in the assay on SK-MEL-2, 5.06 µM (inactive); in the assay with M14, 1.73 µM (inactive); in the assay with U-251, 10.2 µM (inactive); in the assay with RPMI-8226 it was 2.4 µM (inactive); in the assay on MOLT-4 it was 1.08 µM (active). In addition, the GI50 is > 44.1 µM (inactive) in the assay with OVCAR-8; 21.6 µM (inactive) in the assay on KM12; 1.91 µM (inactive) with OVCAR-3; 0.853 µM (active) with NCI-H522; 0.245 µM (active) in the assay on CCRF-CEM; 9.38 µM (inactive) in the assay with NCI-H460. The GI50 in the assay with SK-MEL-5 is 1.75 µM (inactive).

The values above are taken from ChEMBL document CHEMBL1201862, “PubChem BioAssay data set” (2004).
